Results from EP3167873A1, “AQUEOUS SOLUTION OF CONDENSATION PRODUCTS OF TAURINAMIDE AND METHYLENE GLYCOL FOR USE AS ANTI-INFECTIVE AGENT IN THE IMPLANTATION OF DEVICES IN CARDIAC SURGERY” (Weis, Christian Edwin, priority 2015, dated 2017).

Columns and labels:
[1] = set-up: species or system Patienten; settings: in vivo
Description: Schrittmacherimplantationen unter erfindungsgemäßer Verwendung einer 2,0 Gew.-%igen wässrigen Taurolidinlösung sind in der nachfolgenden Tabelle 1 tabellarisch erfasst. Die Tabelle gibt dabei die Befunde für 45 Implantationen, einschließlich von 9 Fällen des Austauschs eines Aggregats gegen ein neues, wieder, die im Zeitraum zwischen Februar und September 2015 erfolgten, wobei in allen Fällen die angegebene 2,0 Gew.-%ige wässrige Taurolidinlösung wie beschrieben zur Anwendung kam.

[2] = test system: ESKAPE Pathogene; settings: cited from earlier work
[3] = test system: MRSA (Methicillin-resistenter Staphylococcus aureus); settings: cited from earlier work
[4] = test system: Infektionen; assay: Clinical use in pacemaker/ICD implantation: device treated and pocket rinsed, infections observed after implantation; assay type: in vivo, Patienten
Description: Bei der Verwendung wird üblicherweise so vorgegangen, dass die implantierbare Vorrichtung vor der Implantation für die zur Erzielung der gewünschten optimalen antimikrobiellen Wirkung und zur vollständigen Benetzung aller Oberflächen der Vorrichtung erforderliche Zeit, gemäß einer bevorzugten Praxis etwa 20 Minuten, in die Lösung eingelegt wird und danach die implantierbare Vorrichtung, z.B. das Gehäuse eines Herzschrittmachers, mit einem Film der wässrigen Lösung auf ihrer Oberfläche in die vom operierenden Chirurgen vorbereitete Tasche implantiert wird.
Die Tasche wird anschließend mit der restlichen Lösung (ca. 100 ml) gespült.
In einer kardiologischen Station eines akademischen Lehrkrankenhauses, in der routinemäßig und in großer Zahl Patienten Herzschrittmacher implantiert werden, gehörte es zur Praxis, zur Infektionsvermeidung die zu implantierenden Herzschrittmachergehäuse während der Implantation mit einer Lösung von Wasserstoffperoxid zu behandeln, wobei gleichzeitig eine Wundspülung mit Wasserstoffperoxid stattfindet. Dabei kommt es zur Freisetzung von Sauerstoff und starkem Aufschäumen. Trotz der bakteriziden Eigenschaften von verdünntem Wasserstoffperoxid ist die Wirkung der Behandlung als Infektionsprophylaxe bei der Implantation von Geräten nicht verifiziert. […]

[5] = test system: Bakterien; settings: contact of the solution with microorganisms / contaminated surfaces; cited from earlier work
[6] = test system: VRE (Vancomycin-resistente Enterokokken); settings: cited from earlier work
[7] = test system: Biofilme; settings: cited from earlier work
[8] = test system: Infektionen; settings: irrigation (wound rinsing); cited from earlier work

| Compound | Wundheilung [1] | Wirksamkeit [2] | Wirksamkeit [3] | Infektion ([4]; 45 implantations of Tabelle 1 (February to September 2015), 2,0 Gew.-% aqueous Taurolidin solution, observed up to filing date) | Infektionen ([4]; pacemaker laid about 20 min in 2,0 Gew.-% Taurolidin solution before implantation, pocket rinsed with rest (ca. 100 ml), comparable number of implantations) | Kontaktdauer bis zur vollen antibakteriellen Wirkung [5] | Wirksamkeit [6] | Wirksamkeit gegen Biofilme [7] | Verbesserung der Infektionsrate [8] |
| --- | --- | --- | --- | --- | --- | --- | --- | --- | --- |
| O=S1(=O)CCN(CN2CCS(=O)(=O)NC2)CN1 [Taurolidin] | gute, ungestörte Wundheilung | voll wirksam | voll wirksam | bei keinem einzigen der Patienten eine Infektion beobachtet | keinerlei Infektionen beobachtet | ≥ 10 Minuten | voll wirksam | wirksam | – |
| Povidon-Iod | – | – | – | – | – | – | – | – | keine nennenswerte Verbesserung beobachtet |
